*1 amine or outer side, *2 acyl side, *3 side chain or, on linkers, in order; H or OH if unused. Where a SMILES comes first, the peptide text is derived from it. Side-chain parts run from the residue outwards. [ ]: non-standard residue; d: D form. The star is where a group is joined. C20 diacid = O=C(O)CCCCCCCCCCCCCCCCCCC(=O)*; γGlu = O=C(O)[C@H](CCC(=O)[*:2])N[*:1]; NMeI = CC[C@H](C)[C@H](NC)C(=O)O; AEEA = NCCOCCOCC(=O)O; Aib = CC(C)(N)C(=O)O
How the values were obtained:
human CRF2a receptor = biological target: T1, human CRF2a receptor (Homo sapiens, UniProt Q13324); test: Activity at human CRF2a receptor, cAMP functional assay in TeloHEAC cells; assay type: cell-based; details: TeloHEAC cells stably expressing human CRF2a receptor, relative to urocortin 2 (100 nM = 100%)
T1 construct: expressed in transfected cells; host or cells: TeloHEAC cells
T1 sequence (Q13324 1-411): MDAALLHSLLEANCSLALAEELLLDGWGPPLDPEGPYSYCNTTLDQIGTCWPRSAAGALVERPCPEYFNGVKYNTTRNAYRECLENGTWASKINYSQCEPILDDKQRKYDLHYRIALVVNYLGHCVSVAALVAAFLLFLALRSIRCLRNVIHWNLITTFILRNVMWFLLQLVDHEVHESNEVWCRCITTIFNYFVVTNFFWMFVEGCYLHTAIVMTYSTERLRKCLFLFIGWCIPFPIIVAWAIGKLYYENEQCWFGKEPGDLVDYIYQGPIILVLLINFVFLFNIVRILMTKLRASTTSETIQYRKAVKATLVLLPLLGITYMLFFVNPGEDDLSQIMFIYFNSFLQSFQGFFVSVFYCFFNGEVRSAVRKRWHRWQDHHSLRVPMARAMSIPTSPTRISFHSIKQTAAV
In short: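 TeloHEAC cells stably expressing human CRF2a (10000 cells/well, suspended in HBSS/20 mM HEPES with 2 mM IBMX) were exposed to compounds for 30 min at 37 °C. cAMP was read as the 665/620 nm fluorescence ratio after 1 h at room temperature. EC50 was derived relative to 100 nM urocortin 2, set as 100%.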

CFR1R receptor = biological target: T2, CFR1R receptor (Homo sapiens, UniProt P34998); test: Activity at anti-target CFR1R receptor, cAMP assay in CRF1R-overexpression CHO-K1 cells; assay type: cell-based; details: 100% = Sauvagine at 100 nM; for EC50: cAMP
T2 construct: host or cells: CHO-K1 (clone 2)
T2 sequence (P34998 24-415): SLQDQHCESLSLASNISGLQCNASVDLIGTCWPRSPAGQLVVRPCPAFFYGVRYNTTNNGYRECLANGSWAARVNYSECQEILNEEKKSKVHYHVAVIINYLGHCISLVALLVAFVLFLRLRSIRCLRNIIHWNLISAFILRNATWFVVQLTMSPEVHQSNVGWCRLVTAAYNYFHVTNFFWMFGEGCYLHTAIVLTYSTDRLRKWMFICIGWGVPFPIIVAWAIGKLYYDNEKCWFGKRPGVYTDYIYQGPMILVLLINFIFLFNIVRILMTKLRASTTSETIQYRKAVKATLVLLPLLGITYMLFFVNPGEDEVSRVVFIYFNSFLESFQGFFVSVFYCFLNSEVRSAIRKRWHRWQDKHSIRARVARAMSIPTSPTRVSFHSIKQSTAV
In short: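 Uses frozen stocks of CHO-K1 clone 2 cells overexpressing human CRF1R, plated at 4000 cells/well final, with cAMP measured by the same protocol as the TeloHAEC line. Full-activation control: 100 nM Sauvagine.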

[1] = In vitro plasma stability, human plasma; assay type: in vitro ADME; parameters: dose or concentration left out as unconfirmed; details: Human PLM, 37° C.
Experimental: (§1) In vitro plasma metabolic stability was studied in male Sprague Dawley rats and human. Test compounds were incubated at 3 M for 2 hours at 37° C. At each time point (0, 0.25, 1 and 2 h), samples were prepared for analysis by means of a single step protein precipitation technique by adding 150 μL of ethanol, 0.1% formic acid to 50 μL aliquots of plasma. Samples were mixed by vortex for homogeneity and then subjected to centrifugation at 14000 rpm for 15 min. The supernatant (100 μL) was collected, diluted with 100 μL of water, 0.1% formic acid and analyzed by LC-HRMS (TripleTOF 6600+, AB Sciex). For each test compound, the area ratios at each time point were compared to the 0 h area ratio and converted to a percentage remaining.

[2] = In vitro plasma stability, rat plasma; assay type: in vitro ADME; parameters: remaining at 2 h: dose or concentration left out as unconfirmed; details: male, Sprague Dawley, plasma; Rat PLM, 37° C.
Experimental: as §1

[3] = In vitro subcutaneous tissue supernatant (SCts) stability and metabolite identification, rat; assay type: in vitro ADME; parameters: remaining at 2 h: dose or concentration left out as unconfirmed; details: male, Sprague Dawley; rat subcutaneous tissue supernatant (SCts), 37° C, 2 h
[4] = Chemical stability in buffer (pH 7.4 / pH 4.5), % purity loss; assay type: physicochemical; details: 100 mM phosphate buffer pH 7.4; 40° C. vs 5° C.; 14 or 28 days
In short: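 LC-UV gave % loss after 14 or 28 days of storage at 5 °C or 40 °C. Samples were diluted supernatants from compound incubated 1 h at room temperature at 10 mg/mL target, in 100 mM acetate pH 4.5 or 100 mM phosphate pH 7.4.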

Sprague Dawley rats = test: Effect on systolic blood pressure, telemetry in Sprague Dawley rats; assay type: in vivo, rat; details: 0.1 mg/kg SC; for Systolic blood pressure (Mean) % change from baseline, 8 h / Systolic blood pressure (Mean) % change from baseline, 12 h / Systolic blood pressure (Mean) % change from baseline, 24 h: n=2; for Duration of action: last time point with an effect on BP still observed
In short: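 Values are % change from a 1 h pre-dose baseline in systolic pressure, tracked by telemetry for up to 48 hours after a single 0.1 mg/kg subcutaneous dose. Rats (Sprague Dawley, n=2 per peptide) carried aortic catheters and recovered at least 10 days post-surgery; duration of action marks the last time point still showing an effect.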

in vitro = test: in vitro; parameters: dose or concentration left out as unconfirmed; details: dog, plasma
Dog PLM = details: 37° C., up to 2 hours
Rat PLM = details: male Sprague Dawley rats, 37° C., up to 2 hours
Human PLM = details: 37° C., up to 2 hours
[5] = Pharmacokinetics in male Sprague Dawley rats after subcutaneous administration; assay type: in vivo; details: plasma, rat, IV, 0.05 mg/kg
[6] = subcutaneous tissue supernatant (SCts); details: male Sprague Dawley rats, 37° C., up to 2 hours

CC[C@H](C)[C@H](NC(C)=O)C(=O)N[C@H](C(=O)N[C@@H](CC(C)C)C(=O)N[C@@H](CO)C(=O)N[C@@H](CC(C)C)C(=O)N[C@@H](CC(=O)O)C(=O)N[C@@H](C(=O)N1CCC[C@H]1C(=O)N[C@H](C(=O)N[C@@H](CCCCN)C(=O)N[C@@H](CC(C)C)C(=O)N[C@@H](CCCCNC(=O)CC[C@H](NC(=O)CCCCCCCCCCCCCCCCCCC(=O)O)C(=O)O)C(=O)N[C@@H](CCCCN)C(=O)N[C@H](C(=O)N[C@@H](CC(C)C)C(=O)N[C@@H](CC(C)C)C(=O)N[C@@H](CCC(=O)O)C(=O)N[C@@H](CCC(N)=O)C(=O)N[C@@H](CCC(=O)O)C(=O)N[C@@H](CCCCN)C(=O)N[C@@H](CCC(N)=O)C(=O)N[C@@H](CCCCN)C(=O)N[C@@H](CCC(=O)O)C(=O)N[C@@H](CCC(N)=O)C(=O)N[C@@H](CCCNC(=N)N)C(=O)N[C@@H](CCC(=O)O)C(=O)N[C@@H](CCC(N)=O)C(=O)N[C@@H](C)C(=O)N[C@@H](CCC(=O)O)C(=O)N[C@H](C(=O)N[C@@H](CC(N)=O)C(=O)NC(C)(C)C(=O)N[C@@H](CCC(N)=O)C(=O)N[C@H](C(=O)N[C@@H](CC(C)C)C(=O)N[C@@H](C)C(=O)N[C@@H](CCC(N)=O)C(=O)N[C@H](C(N)=O)C(C)C)[C@@H](C)CC)[C@@H](C)O)[C@@H](C)CC)[C@@H](C)CC)C(C)C)C(C)C [compound 213] (Ac-IVLSLD[dV]PIKLK([γGlu-C20 diacid])KILLEQEKQKEQREQAETN[Aib]QILAQV-NH2)
EC50 (human CRF2a receptor): 220 pM | Emax (% I) (CFR1R receptor): 27 % I | EC50 (CFR1R receptor): > 250000 pM | remaining at 2 h [1]: 99% | remaining at 2 h [2]: 99% | remaining at 2 h [3]: 74% | Buffer stability pH 7.4 % purity loss [4]: −0.1/Not Tested % | Systolic blood pressure (Mean) % change from baseline, 8 h (Sprague Dawley rats): −10% | Systolic blood pressure (Mean) % change from baseline, 12 h (Sprague Dawley rats): −18% | Systolic blood pressure (Mean) % change from baseline, 24 h (Sprague Dawley rats): −13% | Duration of action (Sprague Dawley rats): >24 h | remaining at 2 h (in vitro): 102%

NMeIVLSLDvPIKLK*KILLEQEKQKEQREQAETNAibQILAQV-NH2 [233]
percent remaining (Dog PLM): 99% remaining at 2 hours | not cleaved (Rat PLM): 106% remaining at 2 hours | not cleaved (Human PLM): 100% remaining at 2 hours

NMeIVLSLDvPIKLK*KILLEQEKQKEQREQAETNAibQILAQV-NH2 [218]
percent remaining (Dog PLM): 102% remaining at 2 hours | not cleaved (Rat PLM): 109% remaining at 2 hours | not cleaved (Human PLM): 99% remaining at 2 hours

CC[C@H](C)[C@H](NC)C(=O)N[C@H](C(=O)N[C@@H](CC(C)C)C(=O)N[C@@H](CO)C(=O)N[C@@H](CC(C)C)C(=O)N[C@@H](CC(=O)O)C(=O)N[C@@H](C(=O)N1CCC[C@H]1C(=O)N[C@H](C(=O)N[C@@H](CCCCN)C(=O)N[C@@H](CC(C)C)C(=O)N[C@@H](CCCCNC(=O)COCCOCCNC(=O)COCCOCCNC(=O)CC[C@H](NC(=O)CCCCCCCCCCCCCCCCCCC(=O)O)C(=O)O)C(=O)N[C@@H](CCCCN)C(=O)N[C@H](C(=O)N[C@@H](CC(C)C)C(=O)N[C@@H](CC(C)C)C(=O)N[C@@H](CCC(=O)O)C(=O)N[C@@H](CCC(N)=O)C(=O)N[C@@H](CCC(=O)O)C(=O)N[C@@H](CCCCN)C(=O)N[C@@H](CCC(N)=O)C(=O)N[C@@H](CCCCN)C(=O)N[C@@H](CCC(=O)O)C(=O)N[C@@H](CCC(N)=O)C(=O)N[C@@H](CCCNC(=N)N)C(=O)N[C@@H](CCC(=O)O)C(=O)N[C@@H](CCC(N)=O)C(=O)N[C@@H](C)C(=O)N[C@@H](CCC(=O)O)C(=O)N[C@H](C(=O)N[C@@H](CC(N)=O)C(=O)NC(C)(C)C(=O)N[C@@H](CCC(N)=O)C(=O)N[C@H](C(=O)N[C@@H](CC(C)C)C(=O)N[C@@H](C)C(=O)N[C@@H](CCC(N)=O)C(=O)N[C@H](C(N)=O)C(C)C)[C@@H](C)CC)[C@@H](C)O)[C@@H](C)CC)[C@@H](C)CC)C(C)C)C(C)C [compound 237] (H-[NMeI]VLSLD[dV]PIKLK([AEEA-AEEA-γGlu-C20 diacid])KILLEQEKQKEQREQAETN[Aib]QILAQV-NH2)
EC50 (human CRF2a receptor): 410 pM | Emax (% I) (CFR1R receptor): 6 % I | EC50 (CFR1R receptor): > 250000 pM | remaining at 2 h [1]: 83% | remaining at 2 h [2]: 84% | remaining at 2 h [3]: 60% | Buffer stability pH 7.4 % purity loss [4]: 0.0/Not Tested % | AUC(0-t) [5]: 4160 ng·h/mL | half-life [5]: 11 h | remaining at 2 h (in vitro): 86%

Ac-IVLSLDvPIKLK*KILLEQEKQKEQREQAETNAibQILAQV-NH2
percent remaining (Dog PLM): 102% remaining at 2 hours | not cleaved (Rat PLM): 99% remaining at 2 hours | not cleaved (Human PLM): 99% remaining at 2 hours

Ac-IVLSLDvPIKLK*KILLEQEKQKAibQREQAETNAibQILAQV-NH2
not cleaved [6]: 95% remaining at 2 h

CC[C@H](C)[C@H](NC)C(=O)N[C@H](C(=O)N[C@@H](CC(C)C)C(=O)N[C@@H](CO)C(=O)N[C@@H](CC(C)C)C(=O)N[C@@H](CC(=O)O)C(=O)N[C@@H](C(=O)N1CCC[C@H]1C(=O)N[C@H](C(=O)N[C@@H](CCCCN)C(=O)N[C@@H](CC(C)C)C(=O)N[C@@H](CCCCNC(=O)COCCOCCNC(=O)CC[C@H](NC(=O)CCCCCCCCCCCCCCCCCCC(=O)O)C(=O)O)C(=O)N[C@@H](CCCCN)C(=O)N[C@H](C(=O)N[C@@H](CC(C)C)C(=O)N[C@@H](CC(C)C)C(=O)N[C@@H](CCC(=O)O)C(=O)N[C@@H](CCC(N)=O)C(=O)N[C@@H](CCC(=O)O)C(=O)N[C@@H](CCCCN)C(=O)N[C@@H](CCC(N)=O)C(=O)N[C@@H](CCCCN)C(=O)N[C@@H](CCC(=O)O)C(=O)N[C@@H](CCC(N)=O)C(=O)N[C@@H](CCCNC(=N)N)C(=O)N[C@@H](CCC(=O)O)C(=O)N[C@@H](CCC(N)=O)C(=O)N[C@@H](C)C(=O)N[C@@H](CCC(=O)O)C(=O)N[C@H](C(=O)N[C@@H](CC(N)=O)C(=O)NC(C)(C)C(=O)N[C@@H](CCC(N)=O)C(=O)N[C@H](C(=O)N[C@@H](CC(C)C)C(=O)N[C@@H](C)C(=O)N[C@@H](CCC(N)=O)C(=O)N[C@H](C(N)=O)C(C)C)[C@@H](C)CC)[C@@H](C)O)[C@@H](C)CC)[C@@H](C)CC)C(C)C)C(C)C [compound 233] (H-[NMeI]VLSLD[dV]PIKLK([AEEA-γGlu-C20 diacid])KILLEQEKQKEQREQAETN[Aib]QILAQV-NH2)
EC50 (human CRF2a receptor): 120 pM | Emax (% I) (CFR1R receptor): 8 % I | EC50 (CFR1R receptor): > 250000 pM | remaining at 2 h [1]: 100% | remaining at 2 h [2]: 106% | remaining at 2 h [3]: 56% | Buffer stability pH 7.4 % purity loss [4]: 0.0/Not Tested % | Systolic blood pressure (Mean) % change from baseline, 8 h (Sprague Dawley rats): 1% | Systolic blood pressure (Mean) % change from baseline, 12 h (Sprague Dawley rats): −8% | Systolic blood pressure (Mean) % change from baseline, 24 h (Sprague Dawley rats): −11% | Duration of action (Sprague Dawley rats): >24 h | AUC(0-t) [5]: 4880 ng·h/mL | half-life [5]: 9 h | remaining at 2 h (in vitro): 99%

Source: patent US20260001928A1 (CORTERIA PHARMACEUTICALS, priority 2022, published 2026)
